In patent US20240254138A1, “TRICYCLIC PYRIMIDINES AS CYCLIN-DEPENDENT KINASE 7 (CDK7) INHIBITORS” (JANSSEN PHARMACEUTICA NV, priority 2021, published 2024):
Like-named read-outs stand apart in the source and are kept apart here.

Experiments:
[1] = target: CDK7/cyclinH/MAT1 trimeric complex (Homo sapiens, UniProt P50613); assay: In vitro CDK7 assay, potency of irreversible covalent inhibitors (kinact/KI), coupled PK/LDH ADP readout at 340 nm; settings: for Ki: CDK7 (20 nM enz.) (KI, μM); for kinact: read-out: CDK7 (20 nM enz.) (kinact, s^−1), 20 nM enzyme
[2] = test system: RNA Polymerase II Serine 5 phosphorylation (Rpb1 CTD, downstream substrate of CDK7) in A549 cells; assay: Imaging-based cellular RNA PolII Ser5 phosphorylation assay in A549 cells; type: cell-based, human; settings: Homo sapiens, A549, A549 cells, wild-type CDK7; RNA PolII Ser5 phosphorylation; averaged over all measurements; read-out: CDK7_A549 Wild-type CDK7 (pIC50) (converted)
How it was run: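 IC50 derived by fitting % control (DMSO high, 10 μM reference low) against concentration, with Hill slope. Readout: high-content imaging of phospho-Ser5 Rpb1 CTD antibody staining in fixed, permeabilized A549 cells exposed to compound 3 h after 20 h culture in 1% FBS DMEM.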

[3] = test system: RNA Polymerase II Serine 5 phosphorylation in A549 cells overexpressing CDK7-mutant (C312S); assay: Imaging-based cellular RNA PolII Ser5 phosphorylation assay in A549 cells overexpressing CDK7-mutant (C312S); type: cell-based, human; settings: Homo sapiens, A549, A549 cells overexpressing CDK7-mutant (C312S); RNA PolII Ser5 phosphorylation; averaged over all measurements; read-out: CDK7_A549 mutant hCDK7(pIC50) (converted)
How it was run: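 Readout was automated imaging of anti-phospho-Ser5 Rpb1 CTD immunofluorescence, with IC50 fitted to % control versus concentration. Cells were A549 stably overexpressing non-covalently targetable CDK7 C312S alongside wild-type, exposed to compound 3 h at 37 °C. DMSO and 10 μM reference compound served as controls.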

[4] = read-out: CDK7 (20 nM enz.) (kinact/KI, M^−1*s^−1), 20 nM enzyme
[5] = read-out: CDK7 (20 nM enz.) (kobs/[I], M^−1*s^−1), 20 nM enzyme

Sequence of CDK7/cyclinH/MAT1 trimeric complex (P50613 whole entry): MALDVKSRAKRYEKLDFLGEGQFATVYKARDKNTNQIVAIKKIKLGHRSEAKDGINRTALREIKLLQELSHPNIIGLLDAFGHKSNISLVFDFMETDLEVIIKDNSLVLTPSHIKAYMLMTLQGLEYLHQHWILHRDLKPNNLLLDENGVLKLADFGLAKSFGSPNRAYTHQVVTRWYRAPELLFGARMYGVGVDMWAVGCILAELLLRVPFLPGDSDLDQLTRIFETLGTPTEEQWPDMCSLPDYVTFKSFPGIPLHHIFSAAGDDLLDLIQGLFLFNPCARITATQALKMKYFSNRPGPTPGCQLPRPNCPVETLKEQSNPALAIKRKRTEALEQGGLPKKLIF
Sequence of CDK7/cyclinH/MAT1 trimeric complex (P51946 whole entry partner): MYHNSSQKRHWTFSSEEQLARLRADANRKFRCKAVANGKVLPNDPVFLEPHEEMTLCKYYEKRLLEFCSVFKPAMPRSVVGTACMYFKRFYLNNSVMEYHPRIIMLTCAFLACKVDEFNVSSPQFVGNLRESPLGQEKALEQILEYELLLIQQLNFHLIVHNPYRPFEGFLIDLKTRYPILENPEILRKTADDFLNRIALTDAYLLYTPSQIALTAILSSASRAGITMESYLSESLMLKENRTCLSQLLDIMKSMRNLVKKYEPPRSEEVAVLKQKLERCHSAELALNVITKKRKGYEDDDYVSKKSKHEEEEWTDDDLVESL
Sequence of CDK7/cyclinH/MAT1 trimeric complex (P51948 whole entry partner): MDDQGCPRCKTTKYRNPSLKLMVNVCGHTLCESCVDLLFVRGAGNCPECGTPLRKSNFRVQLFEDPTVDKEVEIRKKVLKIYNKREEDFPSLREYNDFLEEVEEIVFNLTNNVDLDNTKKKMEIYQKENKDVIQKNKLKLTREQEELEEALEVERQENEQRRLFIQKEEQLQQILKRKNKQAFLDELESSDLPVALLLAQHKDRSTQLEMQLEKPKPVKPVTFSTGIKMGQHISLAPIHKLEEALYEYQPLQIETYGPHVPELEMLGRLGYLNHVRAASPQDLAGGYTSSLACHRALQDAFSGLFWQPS

Ki ([1]; 20 nM enzyme) [µM]	kinact [1] [s⁻¹]	kinact/KI [1, 4] [M⁻¹ s⁻¹]	IC50 [2] [nM]	IC50 [3] [nM]	kinact/KI [1, 5] [M⁻¹ s⁻¹]	CDK7 (20 nM enz.) (kobs/[I], M^−1*s^−1) ([1]; 20 nM enzyme) [M⁻¹ s⁻¹]	CDK7 (20 nM enz.) (kinact, s^−1) ([1]; 20 nM enzyme) [s⁻¹]	SMILES
3.01	6.83e-05	22.7	724	> 10000				C=CC(=O)N1CC[C@@H](N2CC(c3cc(C)c4c(c3)Nc3nccc(N5CCOCC5)c3[C@H](C)O4)C2)C1 (single isomer, unassigned) [Compound 227]
			20	6760	791			C=CC(=O)N1CC[C@@H](N2CC(c3cc(C)c4c(c3)Nc3nccc(N5CCOCC5)c3[C@@H](C)O4)C2)C1 (single isomer, unassigned) [Compound 230]
1.61	6.1e-05	37.8	380	> 10000				C=CC(=O)N1CC[C@H](N2CC(c3cc(C)c4c(c3)Nc3nccc(N5CCOCC5)c3[C@H](C)O4)C2)C1 (single isomer, unassigned) [Compound 231]
10.1	0.000115	11.3	4170	> 10000				C=CC(=O)N1CC(N2CCC(c3ccc4c(c3)Nc3nccc(-c5cnn(C)c5)c3[C@H](C)O4)CC2)C1 (single isomer, unassigned) [Compound 232]
			28.2	8710	1450			C=CC(=O)N1CC(N2CCC(c3ccc4c(c3)Nc3nccc(-c5cnn(C)c5)c3[C@@H](C)O4)CC2)C1 (single isomer, unassigned) [Compound 233]
			95.5	8510		610.385		C=CC(=O)N1CC[C@H](N2CC(c3cc4c(c(C(F)(F)F)n3)OCc3c(N5CCOCC5)ccnc3N4)C2)C1 (single isomer, unassigned) [Compound 234]
			40.7	3310	758			C=CC(=O)N1CC[C@H](N2CC(c3cc4c(c(C(F)(F)F)c3)OCc3c(N5CCOCC5)ccnc3N4)C2)C1 (single isomer, unassigned) [Compound 238]
			43.7	7080	1040			C=CC(=O)N1CC[C@H](N2CC(c3cc(C)c4c(c3)Nc3nccc(N5CCOCC5)c3[C@@H](C)O4)C2)C1 (single isomer, unassigned) [Compound 239]
0.0242	3.61e-05	1490	55	5130				C=CC(=O)N1CC[C@@H](N2CC(c3cc4c(c(C(F)(F)F)c3)OCc3c(N5CCOCC5)ccnc3N4)C2)C1 (single isomer, unassigned) [Compound 240]
0.0269		1380	95.5	10700			3.715e-05	C=CC(=O)N1CC[C@@H](N2CC(c3cc4c(c(C(F)(F)F)n3)OCc3c(N5CCOCC5)ccnc3N4)C2)C1 (single isomer, unassigned) [Compound 241]
0.0802	3.93e-05	490	126	> 10000				C=CC(=O)N1CC(N2CC[C@@H](c3cc4c(c(C)n3)O[C@@H](C)c3c(N5CCOCC5)ccnc3N4)C2)C1 (single isomer, unassigned) [Compound 243]
0.0559	3.61e-05	645	56.2	> 10000				C=CC(=O)N1CC(N2CC[C@@H](c3cc4c(c(C)n3)O[C@H](C)c3c(N5CCOCC5)ccnc3N4)C2)C1 (single isomer, unassigned) [Compound 245]
0.0946	8.4e-05	887	~28.8	> 10000				C=CC(=O)N1CC(N2CCC(c3cc4c(c(C)n3)O[C@H](C)c3c(C5CCOCC5)ccnc3N4)CC2)C1 (single isomer, unassigned) [Compound 246]
1.57	5.48e-05	34.8	776	> 3980				C=CC(=O)N1CC(N2CCC(c3cc4c(c(C)n3)O[C@@H](C)c3c(C5CCOCC5)ccnc3N4)CC2)C1 (single isomer, unassigned) [Compound 247]
			43.7	> 10000	1110			C=CC(=O)N1CC(N2CC(c3cc(C)c4c(c3)Nc3nccc(C5CCOCC5)c3[C@@H](C)O4)C2)C1 (single isomer, unassigned) [Compound 251]
25.5	0.000306	12	2510	> 10000				C=CC(=O)N1CC(N2CC(c3cc(C)c4c(c3)Nc3nccc(C5CCOCC5)c3[C@H](C)O4)C2)C1 (single isomer, unassigned) [Compound 252]
10.7	3.55e-05	3.33	3020	> 10000				C=CC(=O)N1CC(N2CCCN(C)[C@H](c3cc(C)c4c(c3)Nc3nccc(C5CCOCC5)c3CO4)C2)C1 (single isomer, unassigned) [Compound 255]
0.0827	6.71e-05	811	53.7	8320				C=CC(=O)N1CC(N2CC[C@@H](c3cc(C)c4c(c3)Nc3nccc(C5CCOCC5)c3CO4)N(C)CC2)C1 (single isomer, unassigned) [Compound 256]
0.0574	7.95e-05	1380	44.7	7240				C=CC(=O)N1CC(N2CC[C@H](c3cc(C)c4c(c3)Nc3nccc(C5CCOCC5)c3CO4)N(C)CC2)C1 (single isomer, unassigned) [Compound 257]
			21.4	6460	619			C#Cc1cc(C2CCN(C3CN(C(=O)C=C)C3)CC2)cc2c1O[C@@H](C)c1c(N3CCOCC3)ccnc1N2 (single isomer, unassigned) [Compound 258]
0.675	3.66e-05	54.2	> 10000	> 10000				C=CC(=O)N1CC(N2CCCN(C)[C@@H](c3cc(C)c4c(c3)Nc3nccc(C5CCOCC5)c3CO4)C2)C1 (single isomer, unassigned) [Compound 259]
1.11	3.89e-05	34.9	955	> 3980				C=CC(=O)N1CC(N2CCC(c3cc4c(cn3)O[C@@H](C)c3c(N5CCOCC5)ccnc3N4)CC2)C1 (single isomer, unassigned) [Compound 261]
0.0518	3.7e-05	714	117	> 10000				C=CC(=O)N1CC(N2CC(c3cc4c(c(C)n3)O[C@H](C)c3c(N5CCOCC5)ccnc3N4)C2)C1 (single isomer, unassigned) [Compound 270]
0.683	4.07e-05	59.6	692	> 10000				CC#CC(=O)N1CC[C@H](N2CC(c3cc(C)c4c(c3)Nc3nccc(N5CCOCC5)c3[C@H](C)O4)C2)C1 (single isomer, unassigned) [Compound 281]
0.0397	5.01e-05	1260	30.9	> 10000				C=CC(=O)N1CC[C@@H](N2CCC(c3cc4c(c(C)n3)OCc3c(N5CCOCC5)ccnc3N4)CC2)C1 (single isomer, unassigned) [Compound 282]
0.187	7.12e-05	381	69.2	> 10000				C=CC(=O)N1CC[C@H](N2CCC(c3cc4c(c(C)n3)OCc3c(N5CCOCC5)ccnc3N4)CC2)C1 (single isomer, unassigned) [Compound 283]
